# BigSolDB 2.1
smiles,measurement,setting,value
CC[C@H](C)[C@H]1O[C@]2(C=C[C@@H]1C)C[C@@H]1C[C@@H](C/C=C(\C)[C@@H](O[C@H]3C[C@H](OC)[C@@H](O[C@H]4C[C@H](OC)[C@@H](O)[C@H](C)O4)[C@H](C)O3)[C@@H](C)/C=C/C=C3\CO[C@@H]4[C@H](O)C(C)=C[C@@H](C(=O)O1)[C@]34O)O2,solubility (mole fraction),"in acetone, 283.15 K",0.00916
same,solubility (mole fraction),"in acetone, 288.15 K",0.0104
same,solubility (mole fraction),"in acetone, 293.15 K",0.0119
same,solubility (mole fraction),"in acetone, 298.15 K",0.0134
same,solubility (mole fraction),"in acetone, 303.15 K",0.0151
same,solubility (mole fraction),"in acetone, 308.15 K",0.0175
same,solubility (mole fraction),"in acetone, 313.15 K",0.0194
same,solubility (mole fraction),"in isopropanol, 283.15 K",0.00481
same,solubility (mole fraction),"in isopropanol, 288.15 K",0.00589
same,solubility (mole fraction),"in isopropanol, 293.15 K",0.0071
same,solubility (mole fraction),"in isopropanol, 298.15 K",0.00804
same,solubility (mole fraction),"in isopropanol, 303.15 K",0.0096
same,solubility (mole fraction),"in isopropanol, 308.15 K",0.0113
same,solubility (mole fraction),"in isopropanol, 313.15 K",0.0137
